According to patent US8008458B2, “Fatty acid phenolic conjugates” (Indiana University Health Inc., priority 2002, dated 2011):

What was measured:
Assay type in all cases: cell-based
[1] = test system: MDA-231-MB breast cancer cells; experiment: Induction of apoptosis, activated caspase 3 (FITC-DEVD-FMK fluorescence microscopy); settings: 25 μM or similar concentrations, 4 hours at 37° C. (FIG. 11)
Experimental: DHA and EPA conjugates of propofol are used to test their activities against MDA-231-MB breast cancer cells. Induction of apoptosis was assayed by incubating cells with DHA, EPA, or propofol alone or DHA, EPA with propofol as well as DHA-, and EPA as propofol conjugates for 4 hours at 37° C.

[2] = test system: breast carcinoma MDA-MB-231 cells; experiment: Cell adhesion assay, adherence to human vitronectin; settings: 45 min at 37° C., compared with vehicle treated control (FIG. 13)
Experimental: The cell adhesion assay was performed according to the procedure described in Deryugina, E. I., Ratnikov, B., Postnova, T. I., Rozanov, D. V., Strongin, A. Y. (2002) J. Biol. Chem. 277, 9749-9756. The cell adhesion assay was preformed using cyctomatrix of human vitronectin in a 96-well plate (Chemicon International Incorp. of Temecula, Calif.). Each well was incubated with 100 μL of breast carcinoma MDA-MB-231 cells (1×10^5 cells/ml) at 37° C. for 45 min in a CO2 incubator. Individual wells were treated with one of the following: (a) individual agents: DHA, EPA, and propofol; or (b) the combined agents: DHA and propofol, and EPA and propofol; or (c) the conjugates DHA-propofol, or EPA propofol (prepared as described above in Examples 2 and 3). After incubation, the wells were washed three times with PBS, and the adhered cells were stained with crystal violet in 10% ethanol for 5 min at room temperature. The excess stain was subsequently removed by washing the wells six times with PBS. The stained cells were dissolved in 100 microliters (μL) of solubilizing buffer (1:1 mixture of 0.1M NaH2PO4 at a pH of 4.5 in 50% ethanol) and the absorbance of each of the resulting samples was read at 540 nm. The absorbance of dye in the control (vehicle treated cells) was regarded as 100%, and the percent adherence of treated cells was calculated in comparison to that control.

Jurkat leukemic cells = experiment: Jurkat leukemic cell growth and viability (WST-1 Cell Proliferation Kit); settings: RVT alone, 10 μM, 24 hours, RPMI media containing 2% serum
Experimental: In order to evaluate the anti-proliferative activity and synergism between DHA and RVT, the two compounds were added separately to cell cultures containing Jurkat leukemic cells. In a separate experiment, a mixture of DHA and RVT components were added to the Jurkat leukemic cell cultures. The results are illustrated in FIG. 8 as a bar graph. Jurkat cells (Jurkat clone E6-1 from American Type Culture Collection of Manassas, Va. (5×10^4/well)) were incubated with either DHA or RVT, or a combination as indicated in a 96-well plate for 24 hours at 37° C. using a 5% CO2 in RPMI media containing 2% serum. Cell growth and viability were determined using a WST-1 Cell Proliferation Kit (sold by Roche Molecular Biochemicals of Indianapolis, Ind.). The control was a “ethanol-treated” control group. For the results illustrated in FIG. 8, the average was taken of three separate experiments. For the combination of DHA and RVT, a student t test provided a P<0.001 relative to the “ethanol-treated” control group. […] However, when the two components were combined into a single formulation, a synergistic inhibition of Jurkat cell growth was observed. The combination of DHA (30 μM) and RVT (10 μM) inhibited cell growth by about 60%. This is indicative of a synergistic interaction between DHA and RVT on cancer cell growth. […]

Jurkat cells = experiment: Jurkat leukemic cell apoptosis (YO-PRO-1 labeling, flow cytometry)
Experimental: The DHA-RVT ester prepared according to Example 1 was dissolved in DMSO. This solution was used to treat Jurkat cells labeled with YO-PRO-1 (sold by Molecular Probes of Oregon), which is a green fluorescent dye used in flagging apoptotic cells. The labeled cells were analyzed using a FACStar-plus flow cytometer equipped with a water-cooled argon laser emitting at a frequency of 488 nm. Detection of the fluorescent probe was ascertained using a 530±30 band-pass filter. The data depicted in FIGS. 10a-c are illustrated in the form of a histogram. The fluorescent intensity is indicative of apoptotic expression. The unfilled histogram represents the labeled, non-treated cells (1); the filled histogram represents the treated cells (2). […] At approximately 1 μM concentration, the DHA-RVT ester induced apoptosis in approximately 50% of the Jurkat cells (FIG. 10b) while at a concentration of 0.1 μM the ester had little effect on the Jurkat cells (FIG. 10c). Concentrations of resveratrol (10 μM) plus DHA (10 μM) have no effect on Jurkat cell growth.

| Molecule | induction of apoptosis [1] | inhibition of adherence of cancerous cells to vitronectin [2] | also measured |
| --- | --- | --- | --- |
| CC(C)c1cccc(C(C)C)c1O [propofol, 2,6-diisopropylphenol, reference compound] | not very effective | not displayed | – |
| CC/C=C\C/C=C\C/C=C\C/C=C\C/C=C\CCCC(=O)O [EPA, eicosopentenoic acid, reference compound] | not very effective | not displayed | – |
| CCC=CCC=CCC=CCC=CCC=CCCCC(=O)Oc1c(C(C)C)cccc1C(C)C [EPA-propofol, 2,6-Diisopropylphenyl Eicosopentenoate] | effectively induced apoptosis | inhibition of adherence | – |
| Oc1ccc(C=Cc2cc(O)cc(O)c2)cc1 [RVT, resveratrol] | – | – | effect on Jurkat cell growth (Jurkat leukemic cells): neither the DHA (up to 30 μM) nor the RVT (10 μM) alone had any significant effect |
| CCC=CCC=CCC=CCC=CCC=CCC=CCCC(=O)Oc1c(C(C)C)cccc1C(C)C [DHA-propofol, 2,6 Diisopropylphenyldocosa-Hexaenoate] | effectively induced apoptosis | inhibition of adherence | – |
| resveratrol ester of docosahexaenoic acid [DHA-RVT ester] | – | – | effect on Jurkat cells (apoptosis) (Jurkat cells; 0.1 μM (FIG. 10c)): little effect; apoptosis of Jurkat cells (Jurkat cells; 10 μM (FIG. 10a)): apoptosis in nearly all; Jurkat cells in which apoptosis was induced (Jurkat cells; approximately 1 μM (FIG. 10b)): approximately 50% |
